Results from paper PMC10367131 (ACS Synthetic Biology, 2023).

Experiments:
VgGR/RXR = molecular target: T1, VgGR/RXR (Homo sapiens, UniProt P04150+P19793, F602S); assay: VgGR/RXR luciferase reporter co-transfection assay in HEK293 cells; type: cell-based
T1 sequence (P04150 523-777 F602S limits assumed): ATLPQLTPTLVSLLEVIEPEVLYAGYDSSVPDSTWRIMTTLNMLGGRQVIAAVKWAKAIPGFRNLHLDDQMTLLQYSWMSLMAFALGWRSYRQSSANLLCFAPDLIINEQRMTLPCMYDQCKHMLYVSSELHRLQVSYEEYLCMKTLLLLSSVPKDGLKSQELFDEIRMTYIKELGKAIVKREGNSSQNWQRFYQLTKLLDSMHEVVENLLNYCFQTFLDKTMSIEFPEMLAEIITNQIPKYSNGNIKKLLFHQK
T1 sequence (P19793 1-462): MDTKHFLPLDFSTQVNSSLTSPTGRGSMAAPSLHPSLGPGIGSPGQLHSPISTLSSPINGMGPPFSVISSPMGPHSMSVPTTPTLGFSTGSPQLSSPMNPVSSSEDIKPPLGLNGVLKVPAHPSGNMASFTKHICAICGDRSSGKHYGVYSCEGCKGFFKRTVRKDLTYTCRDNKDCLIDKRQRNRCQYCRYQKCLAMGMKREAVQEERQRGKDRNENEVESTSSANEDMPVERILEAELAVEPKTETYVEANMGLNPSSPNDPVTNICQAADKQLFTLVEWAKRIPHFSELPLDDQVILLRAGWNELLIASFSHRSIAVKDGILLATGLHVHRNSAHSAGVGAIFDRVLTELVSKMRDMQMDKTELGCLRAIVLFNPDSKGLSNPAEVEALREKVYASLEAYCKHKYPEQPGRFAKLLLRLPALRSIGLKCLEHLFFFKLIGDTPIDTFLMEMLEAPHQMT

VgEcR/RXR = assay: Original VgEcR/RXR luciferase reporter co-transfection assay in HEK293 cells; type: cell-based, human; conditions: ligand alone at 1 µM or 10 µM, HEK293, 20 h

## C[C@@H]1C[C@H]2[C@@H]3CCC4=CC(=O)C=C[C@]4(C)[C@@]3(F)[C@@H](O)C[C@]2(C)[C@@]1(O)C(=O)CO [DEX, dexamethasone]
VgGR/RXR
  Maximal activation of reporter expression by ligand alone: around one order of magnitude
VgEcR/RXR
  Response of original VgEcR/RXR reporter expression to ligand: did not respond

## C[C@]12C=CC(=O)C=C1CC[C@@H]1[C@@H]2[C@@H](O)C[C@@]2(C)[C@H]1CC[C@]2(O)C(=O)CO [PRED, prednisolone]
VgEcR/RXR
  Response of original VgEcR/RXR reporter expression to ligand: did not respond

## CC(C)CC[C@@H](O)[C@](C)(O)[C@H]1CC[C@@]2(O)C3=CC(=O)[C@@H]4C[C@@H](O)[C@@H](O)C[C@]4(C)[C@H]3CC[C@]12C [PonA, ponasterone A]
VgGR/RXR; ligand alone, HEK293, 20 h
  Response of VgGR/RXR reporter expression to ligand: did not respond

## CC#C[C@]1(O)CC[C@H]2[C@@H]3CCC4=CC(=O)CCC4=C3[C@@H](c3ccc(N(C)C)cc3)C[C@@]21C [RU-486, mifepristone]
VgGR/RXR
  Effect of increasing antagonist concentration on DEX-activated output: reduction of output levels
  Effect on reporter expression in the absence of DEX: increase in reporter expression
